Measurements published in ChEMBL document CHEMBL3132769, “Fragment growing to retain or alter the selectivity of anchored kinase hinge-binding fragments” (Medchemcomm, 2014).

Tests used:
[1] = biological target: Mitogen-activated protein kinase 1 (Homo sapiens) (UniProt P28482); experiment: Inhibition of human full length ERK2 expressed in Escherichia coli cell assessed as substrate phosphorylation using fluorescence-labelled peptides as substrate at 8 uM after 90 mins by microfluidic peptide phosphorylation assay
[2] = biological target: Serine/threonine-protein kinase MARK2 (Homo sapiens) (UniProt Q7KZI7); experiment: Inhibition of human full length MARK2 expressed in baculovirus assessed as substrate phosphorylation using fluorescence-labelled peptides as substrate at 2 uM after 90 mins by microfluidic peptide phosphorylation assay
[3] = biological target: Protein kinase C theta type (Homo sapiens) (UniProt Q04759); experiment: Inhibition of human truncated PKC theta expressed in baculovirus assessed as substrate phosphorylation using fluorescence-labelled peptides as substrate at 1000 uM after 90 mins by microfluidic peptide phosphorylation assay
[4] = biological target: T1, Mitogen-activated protein kinase 13 (Homo sapiens) (UniProt O15264); experiment: Inhibition of human full length p38 delta expressed in Escherichia coli cell assessed as substrate phosphorylation using fluorescence-labelled peptides as substrate at 0.1 uM after 90 mins by microfluidic peptide phosphorylation assay
T1 sequence (whole entry): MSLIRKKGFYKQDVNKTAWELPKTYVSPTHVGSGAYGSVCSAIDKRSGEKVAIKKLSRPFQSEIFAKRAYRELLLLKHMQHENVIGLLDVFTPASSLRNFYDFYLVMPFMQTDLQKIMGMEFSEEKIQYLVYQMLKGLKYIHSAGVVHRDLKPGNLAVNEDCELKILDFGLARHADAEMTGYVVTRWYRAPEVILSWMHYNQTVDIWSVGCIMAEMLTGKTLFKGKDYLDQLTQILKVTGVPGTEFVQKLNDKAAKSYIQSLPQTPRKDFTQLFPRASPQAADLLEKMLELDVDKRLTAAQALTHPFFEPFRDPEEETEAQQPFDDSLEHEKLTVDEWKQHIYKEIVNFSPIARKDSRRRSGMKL

[5] = biological target: T2, Serine/threonine-protein kinase Sgk1 (Homo sapiens) (UniProt O00141); experiment: Inhibition of human truncated SGK1 expressed in baculovirus assessed as substrate phosphorylation using fluorescence-labelled peptides as substrate at 420 uM after 90 mins by microfluidic peptide phosphorylation assay
T2 sequence (whole entry): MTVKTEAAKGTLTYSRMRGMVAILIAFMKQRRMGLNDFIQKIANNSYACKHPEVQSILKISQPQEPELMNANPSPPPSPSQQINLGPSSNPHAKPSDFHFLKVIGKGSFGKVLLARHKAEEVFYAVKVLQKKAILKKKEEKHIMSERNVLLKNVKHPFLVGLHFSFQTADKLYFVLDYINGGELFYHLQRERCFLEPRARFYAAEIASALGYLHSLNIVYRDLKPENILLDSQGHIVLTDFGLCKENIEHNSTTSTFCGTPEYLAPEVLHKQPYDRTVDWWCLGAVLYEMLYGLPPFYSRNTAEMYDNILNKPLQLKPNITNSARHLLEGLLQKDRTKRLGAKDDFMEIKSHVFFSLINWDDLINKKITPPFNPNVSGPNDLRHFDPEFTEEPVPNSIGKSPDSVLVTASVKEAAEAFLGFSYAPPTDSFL

[6] = biological target: T3, MAP kinase-activated protein kinase 5 (Homo sapiens) (UniProt Q8IW41); experiment: Inhibition of human full length PRAK expressed in baculovirus assessed as substrate phosphorylation using fluorescence-labelled peptides as substrate at 9 uM after 90 mins by microfluidic peptide phosphorylation assay
T3 sequence (whole entry): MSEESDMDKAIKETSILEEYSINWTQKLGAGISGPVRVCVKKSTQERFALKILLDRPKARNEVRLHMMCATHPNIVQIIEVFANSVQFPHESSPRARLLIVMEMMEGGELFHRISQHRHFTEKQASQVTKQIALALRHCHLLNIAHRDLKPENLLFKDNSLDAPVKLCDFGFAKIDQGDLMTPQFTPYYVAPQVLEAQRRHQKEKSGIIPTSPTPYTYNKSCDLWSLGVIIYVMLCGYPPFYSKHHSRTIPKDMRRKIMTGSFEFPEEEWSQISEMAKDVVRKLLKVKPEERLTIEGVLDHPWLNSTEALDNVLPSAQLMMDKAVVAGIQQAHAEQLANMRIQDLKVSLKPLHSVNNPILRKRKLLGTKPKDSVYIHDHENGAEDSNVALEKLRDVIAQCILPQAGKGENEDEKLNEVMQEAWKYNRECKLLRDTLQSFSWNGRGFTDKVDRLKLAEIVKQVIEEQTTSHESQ

[7] = biological target: Protein kinase C eta type (Homo sapiens) (UniProt P24723); experiment: Inhibition of human truncated PKC eta expressed in baculovirus assessed as substrate phosphorylation using fluorescence-labelled peptides as substrate at 9 uM after 90 mins by microfluidic peptide phosphorylation assay
[8] = tested on: T4, Receptor-type tyrosine-protein kinase FLT3 (Homo sapiens), P36888 [D835Y]; experiment: Inhibition of human FLT3 D835Y mutant catalytic domain expressed in baculovirus assessed as substrate phosphorylation using fluorescence-labelled peptides as substrate at 9 uM after 90 mins by microfluidic peptide phosphorylation assay
T4 sequence (whole entry): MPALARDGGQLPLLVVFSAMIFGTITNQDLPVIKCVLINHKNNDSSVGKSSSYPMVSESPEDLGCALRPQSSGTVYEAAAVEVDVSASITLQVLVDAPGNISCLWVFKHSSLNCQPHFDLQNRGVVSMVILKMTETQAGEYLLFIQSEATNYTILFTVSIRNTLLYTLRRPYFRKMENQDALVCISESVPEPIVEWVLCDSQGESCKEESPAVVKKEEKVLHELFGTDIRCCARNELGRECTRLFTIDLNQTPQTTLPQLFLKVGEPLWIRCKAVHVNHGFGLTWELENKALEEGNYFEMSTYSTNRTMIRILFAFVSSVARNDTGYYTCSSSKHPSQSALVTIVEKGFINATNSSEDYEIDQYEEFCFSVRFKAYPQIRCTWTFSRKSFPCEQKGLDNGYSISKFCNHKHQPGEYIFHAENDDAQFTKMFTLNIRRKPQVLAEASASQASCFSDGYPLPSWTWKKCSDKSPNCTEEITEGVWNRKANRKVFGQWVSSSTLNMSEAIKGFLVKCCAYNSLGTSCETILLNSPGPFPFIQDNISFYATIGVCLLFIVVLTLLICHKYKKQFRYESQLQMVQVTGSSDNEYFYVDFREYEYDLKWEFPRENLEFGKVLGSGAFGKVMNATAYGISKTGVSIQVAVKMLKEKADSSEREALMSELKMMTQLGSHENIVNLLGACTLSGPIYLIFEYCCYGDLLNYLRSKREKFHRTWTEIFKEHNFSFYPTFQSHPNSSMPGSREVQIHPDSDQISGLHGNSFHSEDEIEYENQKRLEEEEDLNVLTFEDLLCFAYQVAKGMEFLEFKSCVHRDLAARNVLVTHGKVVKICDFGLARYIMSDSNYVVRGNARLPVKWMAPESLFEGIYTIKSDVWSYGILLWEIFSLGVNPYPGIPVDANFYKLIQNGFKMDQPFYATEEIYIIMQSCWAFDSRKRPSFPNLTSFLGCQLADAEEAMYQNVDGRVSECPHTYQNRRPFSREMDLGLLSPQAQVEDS

Chain of Protein kinase C theta type (Homo sapiens) (Q04759 whole entry, looked up, the tested form may be a part): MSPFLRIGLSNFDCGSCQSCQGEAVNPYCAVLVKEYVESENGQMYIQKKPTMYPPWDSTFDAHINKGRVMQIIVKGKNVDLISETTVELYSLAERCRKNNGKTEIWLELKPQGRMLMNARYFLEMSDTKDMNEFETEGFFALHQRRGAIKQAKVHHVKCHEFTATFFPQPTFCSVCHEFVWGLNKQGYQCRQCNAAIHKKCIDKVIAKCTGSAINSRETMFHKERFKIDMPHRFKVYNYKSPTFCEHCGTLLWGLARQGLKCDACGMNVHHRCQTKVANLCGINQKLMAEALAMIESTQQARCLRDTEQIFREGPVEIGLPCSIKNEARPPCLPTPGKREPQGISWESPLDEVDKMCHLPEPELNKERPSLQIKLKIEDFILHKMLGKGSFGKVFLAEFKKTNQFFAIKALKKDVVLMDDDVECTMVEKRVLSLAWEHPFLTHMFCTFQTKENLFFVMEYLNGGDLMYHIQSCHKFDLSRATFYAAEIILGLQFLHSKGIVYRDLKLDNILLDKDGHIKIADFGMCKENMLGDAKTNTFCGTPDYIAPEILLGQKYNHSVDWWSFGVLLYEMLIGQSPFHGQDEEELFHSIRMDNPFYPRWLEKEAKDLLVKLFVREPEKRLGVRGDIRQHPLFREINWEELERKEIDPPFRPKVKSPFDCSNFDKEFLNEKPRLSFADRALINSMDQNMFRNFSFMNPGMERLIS
Chain of Protein kinase C eta type (Homo sapiens) (P24723 whole entry, the tested form may be a part): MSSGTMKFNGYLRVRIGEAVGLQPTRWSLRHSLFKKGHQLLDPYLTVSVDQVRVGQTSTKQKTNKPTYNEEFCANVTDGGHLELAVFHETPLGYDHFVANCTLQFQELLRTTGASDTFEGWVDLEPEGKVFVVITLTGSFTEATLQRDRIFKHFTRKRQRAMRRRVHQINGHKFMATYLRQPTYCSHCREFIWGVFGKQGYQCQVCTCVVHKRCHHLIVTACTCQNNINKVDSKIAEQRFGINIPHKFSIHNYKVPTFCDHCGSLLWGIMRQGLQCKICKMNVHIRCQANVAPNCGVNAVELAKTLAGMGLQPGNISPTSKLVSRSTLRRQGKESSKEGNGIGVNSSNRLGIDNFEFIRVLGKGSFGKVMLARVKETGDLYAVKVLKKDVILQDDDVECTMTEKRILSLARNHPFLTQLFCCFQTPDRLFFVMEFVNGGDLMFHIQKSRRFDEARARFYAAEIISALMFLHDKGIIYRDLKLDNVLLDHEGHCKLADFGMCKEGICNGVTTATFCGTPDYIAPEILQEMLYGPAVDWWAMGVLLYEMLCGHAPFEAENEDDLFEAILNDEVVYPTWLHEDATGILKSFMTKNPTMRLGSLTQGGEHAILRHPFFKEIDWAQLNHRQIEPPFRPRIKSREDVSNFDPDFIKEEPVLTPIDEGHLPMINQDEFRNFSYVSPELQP
Chain of Serine/threonine-protein kinase MARK2 (Homo sapiens) (Q7KZI7 whole entry, the tested form may be a part): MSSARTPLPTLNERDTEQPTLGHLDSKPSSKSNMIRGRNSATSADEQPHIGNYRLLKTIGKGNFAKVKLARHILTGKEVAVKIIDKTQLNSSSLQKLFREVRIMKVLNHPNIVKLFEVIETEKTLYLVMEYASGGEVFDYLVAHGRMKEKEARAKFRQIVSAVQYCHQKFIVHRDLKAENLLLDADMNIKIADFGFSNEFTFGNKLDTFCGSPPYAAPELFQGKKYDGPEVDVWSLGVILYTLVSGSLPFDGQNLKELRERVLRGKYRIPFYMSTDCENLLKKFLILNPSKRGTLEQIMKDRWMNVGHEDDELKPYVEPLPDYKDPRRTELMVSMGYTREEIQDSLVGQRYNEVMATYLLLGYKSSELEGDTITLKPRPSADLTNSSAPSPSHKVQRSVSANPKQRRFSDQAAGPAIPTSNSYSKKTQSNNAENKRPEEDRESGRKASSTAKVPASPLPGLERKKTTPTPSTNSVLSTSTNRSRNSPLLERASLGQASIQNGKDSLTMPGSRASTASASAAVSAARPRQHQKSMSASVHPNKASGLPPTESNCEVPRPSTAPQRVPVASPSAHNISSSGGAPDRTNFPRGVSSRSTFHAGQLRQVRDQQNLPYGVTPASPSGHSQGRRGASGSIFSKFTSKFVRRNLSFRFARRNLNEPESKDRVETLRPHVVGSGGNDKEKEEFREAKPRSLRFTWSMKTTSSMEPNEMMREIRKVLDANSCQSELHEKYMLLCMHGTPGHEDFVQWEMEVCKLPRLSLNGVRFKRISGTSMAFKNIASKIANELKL
Chain of Mitogen-activated protein kinase 1 (Homo sapiens) (P28482 whole entry): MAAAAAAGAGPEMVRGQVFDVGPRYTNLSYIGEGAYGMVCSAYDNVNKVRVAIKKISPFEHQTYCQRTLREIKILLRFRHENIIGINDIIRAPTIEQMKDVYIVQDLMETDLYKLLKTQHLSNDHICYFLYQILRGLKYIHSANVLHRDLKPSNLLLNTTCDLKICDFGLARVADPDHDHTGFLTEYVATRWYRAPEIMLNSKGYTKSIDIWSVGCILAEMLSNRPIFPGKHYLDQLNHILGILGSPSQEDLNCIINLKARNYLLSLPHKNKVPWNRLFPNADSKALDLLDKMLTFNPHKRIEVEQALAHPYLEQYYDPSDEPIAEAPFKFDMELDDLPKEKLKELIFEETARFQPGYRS

NCC1CCN(c2ncnc3[nH]ccc23)CC1
inhibition [1]: 7.5%

NC1CCN(c2ncnc3[nH]ccc23)CC1
inhibition [2]: 0%

c1cnc2[nH]ccc2c1
inhibition [3]: 29%

C[C@H](CN(C)C)Oc1nc(Nc2cc3cccc(Cl)c3cn2)cnc1C#N
inhibition [4]: 2.5%

c1nc(N2CCOCC2)c2nc[nH]c2n1
inhibition [5]: 83.5%

NCC1CN(c2ncnc3[nH]c4cnccc4c23)CCO1 (stereo not drawn)
inhibition [6]: 0% | inhibition [7]: 54.5% | inhibition [8]: 95%
